Values after ≈ are worked out from the molar mass of the structure shown.
How the values were obtained:
Streptococcus sp. = assay: In vitro antibacterial evaluation: minimum inhibitory concentration (MIC), broth dilution method; type: cell-based
Outline: (§1)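 Inoculum: 5×10^5 CFU/mL. Range: 64-0.06 μg/mL. Medium: Muller-Hinton II […]; NCCLS M7-A2 broth dilution. Endpoint: lowest concentration inhibiting growth. Strains include methicillin-, penicillin- and/or vancomycin-resistant clinical isolates.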

Escherichia coli = assay: as above; type: cell-based
Outline: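 Susceptibility determined by NCCLS-recommended broth dilution (M7-A2), Muller-Hinton II […]. Concentration span 64-0.06 μg/mL, inoculum 5×10^5 CFU/mL. Isolates include strains resistant to methicillin, penicillin and/or vancomycin.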

Enterococcus sp. = assay: as above; type: cell-based
Outline: as §1

Staphylococcus sp. = assay: as above; type: cell-based; conditions: broth dilution, 18 hours at 35° C.
Outline: as §1

[1] = Anatomic pathology (heart and kidney histopathology) in mice; type: in vivo, CD-1 mice; conditions: 20 mg/kg intravenously daily for 9 days, microscopic histopathology on day 10
Outline: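 Histopathology on H&E-stained, paraffin-embedded sections, subjectively scored (slight, mild, moderate, marked, severe) relative to untreated controls. Dosing: glycopeptide antibiotics 20 mg/kg intravenously once daily ×9 days in 20-day-old CD-1 mice, n=5 per group including vehicle.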

[2] = test system: Staphylococcus aureus-SMITH (GC 4543); assay: Acute lethal infection in mice (ED50); type: in vivo; conditions: female CD-1 mice, intraperitoneal challenge, intravenous dose 30 min. after infection, 7 day survival ratios
Outline: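 ED50 derived from pooled 7-day survival in three separate experiments, five mice per dose level. Single intravenous dose 30 min after intraperitoneal infection of female CD-1 mice with enough bacteria to kill untreated animals in 24-48 h.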

With `CC(c1ccccc1)C1NC(=O)CNC(=O)C(CO)NC(=O)C(C(O)C2CNC(=N)N2C2OC(CO)C(O)C(O)C2O)NC(=O)C(C(O)C2CNC(=N)N2)NC(=O)C(Cc2ccc(OC3OC(CO)C(OC4OC5COC(c6ccc(C(=O)O)cc6)OC5C(O)C4O)C(O)C3O)cc2)NC1=O` (stereo not drawn) [Example 141, Cyclo[glycyl-β-methylphenylalanyl-O-[4-O-[4,6-O-(4-carboxybenzylidene)hexopyranosyl]-hexopyranosyl]tyrosyl-3-(2-iminoimidazolidin-4-yl)seryl-3-(3-hexopyranosyl-2-iminoimidazolidin-4-yl)serylseryl]] the “MIC Streptococcus pneumoniae (ATCC 6301)” value (Streptococcus sp.; strain ATCC 6301) was >64 mg/L, the “MIC Streptococcus pneumoniae (GC 1894)” value (Streptococcus sp.; strain GC 1894) was >64 mg/L and the “MIC Streptococcus pyogenes (GC 4563)” value (Streptococcus sp.; strain GC 4563) was >64 mg/L. For the same molecule, the “MIC Streptococcus agalactiae (GC 4564)” value (Streptococcus sp.; strain GC 4564) was >64 mg/L, the “MIC Streptococcus pneumoniae (GC 4565)” value (Streptococcus sp.; strain GC 4565) was >64 mg/L and the “MIC Escherichia coli (ATCC 25922)” value (Escherichia coli; strain ATCC 25922) was >64 mg/L. The “MIC Escherichia coli (GC 4559)” value (Escherichia coli; strain GC 4559) was >64 mg/L, the “MIC Escherichi coli (GC 4560)” value (Escherichia coli; strain GC 4560) was >64 mg/L and the “MIC Enterococcus faecalis (ATCC 29212)” value (Enterococcus sp.; strain ATCC 29212) was >64 mg/L. For the same molecule, the “MIC Enterococcus faecalis (GC 2242)” value (Enterococcus sp.; strain GC 2242) was >64 mg/L, the “MIC Enterococcus faecium (GC 2243)” value (Enterococcus sp.; strain GC 2243) was >64 mg/L and the “MIC Enterococcus faecalis (GC 2691)” value (Enterococcus sp.; strain GC 2691) was >64 mg/L. The “MIC Enterococcus faecalis (GC 3059)” value (Enterococcus sp.; strain GC 3059) was >64 mg/L, the “MIC Enterococcus faecalis (GC 4552)” value (Enterococcus sp.; strain GC 4552) was >64 mg/L and the “MIC Enterococcus faecalis (GC 4553)” value (Enterococcus sp.; strain GC 4553) was >64 mg/L. For the same molecule, the “MIC Enterococcus faecalis (GC 4554)” value (Enterococcus sp.; strain GC 4554) was >64 mg/L, the “MIC Enterococcus faecium (GC 4556)” value (Enterococcus sp.; strain GC 4556) was >64 mg/L and the “MIC Enterococcus faecium (GC 4557)” value (Enterococcus sp.; strain GC 4557) was 64 mg/L (≈ 44.8 µM). The “MIC Enterococcus avium (GC 4558)” value (Enterococcus sp.; strain GC 4558) was >64 mg/L, the “MIC Enterococcus faecalis (GC 6189)” value (Enterococcus sp.; strain GC 6189) was >64 mg/L and the “MIC Coagulase Negative Staphylococcus (GC 4547)” value (Staphylococcus sp.; 5×10^5 CFU/mL) was >64 mg/L. For the same molecule, the “MIC Coagulase Negative Staphylococcus (GC 4548)” value (Staphylococcus sp.; 5×10^5 CFU/mL) was >64 mg/L, the “MIC Coagulase Negative Staphylococcus (GC 4549)” value (Staphylococcus sp.; 5×10^5 CFU/mL) was >64 mg/L and the “MIC Coagulase Negative Staphylococcus (GC 4551)” value (Staphylococcus sp.; 5×10^5 CFU/mL) was >64 mg/L. For the same molecule, the “MIC Coagulase Negative Staphylococcus (GC 6257)” value (Staphylococcus sp.; 5×10^5 CFU/mL) was >64 mg/L, the “MIC Staphylococcus aureus (ATCC 29213)” value (Staphylococcus sp.; 5×10^5 CFU/mL) was >64 mg/L and the “MIC Staphylococcus aureus (GC 1131)” value (Staphylococcus sp.; 5×10^5 CFU/mL) was >64 mg/L. For the same molecule, the “MIC Staphylococcus aureus (GC 3051)” value (Staphylococcus sp.; 5×10^5 CFU/mL) was >64 mg/L, the “MIC Staphylococcus aureus (GC 3053)” value (Staphylococcus sp.; 5×10^5 CFU/mL) was >64 mg/L and the “MIC Staphylococcus aureus (GC 4541)” value (Staphylococcus sp.; 5×10^5 CFU/mL) was >64 mg/L. The “MIC Staphylococcus aureus (GC 4542)” value (Staphylococcus sp.; 5×10^5 CFU/mL) was >64 mg/L, the “MIC Staphylococcus aureus (GC 4544)” value (Staphylococcus sp.; 5×10^5 CFU/mL) was >64 mg/L and the “MIC Staphylococcus aureus (GC 4545)” value (Staphylococcus sp.; 5×10^5 CFU/mL) was >64 mg/L. The “MIC Staphylococcus aureus-SMITH (GC 4543)” value (Staphylococcus sp.; 5×10^5 CFU/mL) was >64 mg/L, the “MIC Staphylococcus haemolyticus (GC 4546)” value (Staphylococcus sp.; 5×10^5 CFU/mL) was >64 mg/L and the “MIC Staphylococcus aureus (ATCC 29213)” value (Staphylococcus sp.; strain ATCC 29213) was >64 mg/L. For the same molecule, the “MIC Staphylococcus aureus (GC 1131)” value (Staphylococcus sp.; strain GC 1131) was >64 mg/L, the “MIC Staphylococcus aureus (GC 3051)” value (Staphylococcus sp.; strain GC 3051) was >64 mg/L and the “MIC Staphylococcus aureus (GC 3053)” value (Staphylococcus sp.; strain GC 3053) was >64 mg/L. The “MIC Staphylococcus aureus (GC 4541)” value (Staphylococcus sp.; strain GC 4541) was >64 mg/L, the “MIC Staphylococcus aureus (GC 4542)” value (Staphylococcus sp.; strain GC 4542) was >64 mg/L and the “MIC Staphylococcus aureus-SMITH (GC 4543)” value (Staphylococcus sp.; strain GC 4543) was >64 mg/L. The “MIC Staphylococcus aureus (GC 4544)” value (Staphylococcus sp.; strain GC 4544) was >64 mg/L, the “MIC Staphylococcus aureus (GC 4545)” value (Staphylococcus sp.; strain GC 4545) was >64 mg/L and the “MIC Staphylococcus haemolyticus (GC 4546)” value (Staphylococcus sp.; strain GC 4546) was >64 mg/L. The “MIC Coagulase Negative Staphylococcus (GC 4547)” value (Staphylococcus sp.; strain GC 4547) was >64 mg/L, the “MIC Coagulase Negative Staphylococcus (GC 4548)” value (Staphylococcus sp.; strain GC 4548) was >64 mg/L and the “MIC Coagulase Negative Staphylococcus (GC 4549)” value (Staphylococcus sp.; strain GC 4549) was >64 mg/L. For the same molecule, the “MIC Coagulase Negative Staphylococcus (GC 4551)” value (Staphylococcus sp.; strain GC 4551) was >64 mg/L, the “MIC Coagulase Negative Staphylococcus (GC 6257)” value (Staphylococcus sp.; strain GC 6257) was >64 mg/L and the “Anatomical Pathology (Day 10), Heart” value [1] was 0. The “Anatomical Pathology (Day 10), Kidney” value [1] was “+++” and the “median effective dose (ED50), Staphylococcus aureus-SMITH (GC 4543)” value [2] was >8.

— patent US8247211B2, “Glycopeptide antibiotics” (American Cyanamid Company, priority 2001, dated 2012)
